# Assay results as given in patent US6521620B1, “Bicyclic compounds capable of inhibiting tyrosine kinases of the epidermal growth factor receptor family” (Warner-Lambert Company, priority 1994, dated 2003).
# Where a name gives a salt, the structure may show the parent alone.
# Molecular target: T1, Human EGF receptor tyrosine kinase (Homo sapiens, UniProt P00533)
# T1 construct: isolated from A431 human epidermoid carcinoma cells which overexpress EGF receptor; endogenous in cells; host or cells: A431 human epidermoid carcinoma cells; purified from the lysate on wheat germ agglutinin sepharose
# T1 sequence (P00533 25-1210): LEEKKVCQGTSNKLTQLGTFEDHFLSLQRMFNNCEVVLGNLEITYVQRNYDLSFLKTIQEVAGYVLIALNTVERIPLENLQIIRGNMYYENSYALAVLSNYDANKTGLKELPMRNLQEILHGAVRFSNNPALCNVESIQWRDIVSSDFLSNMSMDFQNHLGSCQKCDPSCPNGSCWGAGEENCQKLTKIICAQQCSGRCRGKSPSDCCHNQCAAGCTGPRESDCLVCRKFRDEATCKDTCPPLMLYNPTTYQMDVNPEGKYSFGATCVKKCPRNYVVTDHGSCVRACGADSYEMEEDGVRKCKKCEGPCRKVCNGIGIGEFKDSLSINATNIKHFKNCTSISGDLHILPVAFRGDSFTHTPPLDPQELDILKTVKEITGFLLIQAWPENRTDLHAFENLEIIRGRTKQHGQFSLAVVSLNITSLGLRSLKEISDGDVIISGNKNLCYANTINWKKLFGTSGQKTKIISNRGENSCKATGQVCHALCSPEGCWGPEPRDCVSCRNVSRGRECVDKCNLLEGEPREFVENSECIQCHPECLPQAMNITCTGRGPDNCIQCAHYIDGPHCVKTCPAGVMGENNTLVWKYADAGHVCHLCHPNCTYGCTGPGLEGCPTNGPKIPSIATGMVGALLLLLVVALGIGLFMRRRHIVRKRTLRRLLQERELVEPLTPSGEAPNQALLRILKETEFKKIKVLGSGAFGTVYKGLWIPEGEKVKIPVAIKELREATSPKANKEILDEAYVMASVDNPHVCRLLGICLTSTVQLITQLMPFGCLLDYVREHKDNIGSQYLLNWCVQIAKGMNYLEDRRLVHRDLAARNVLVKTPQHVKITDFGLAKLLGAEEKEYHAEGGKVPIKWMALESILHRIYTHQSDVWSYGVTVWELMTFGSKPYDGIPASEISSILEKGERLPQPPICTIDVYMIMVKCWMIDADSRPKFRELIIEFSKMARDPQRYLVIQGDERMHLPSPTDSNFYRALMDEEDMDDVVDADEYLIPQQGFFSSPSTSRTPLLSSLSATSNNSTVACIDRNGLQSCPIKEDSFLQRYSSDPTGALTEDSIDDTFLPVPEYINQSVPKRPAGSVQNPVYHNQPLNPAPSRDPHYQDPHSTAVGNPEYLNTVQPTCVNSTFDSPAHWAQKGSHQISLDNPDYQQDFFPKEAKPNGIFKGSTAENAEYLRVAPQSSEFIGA
# Experiment: EGF receptor tyrosine kinase inhibition (phosphorylation of PLC-gamma 1 derived peptide)
# Type: biochemical
# Settings: not given
# Protocol: Purification of Epidermal Growth Factor Receptor Tyrosine Kinase—Human EGF receptor tyrosine kinase was isolated from A431 human epidermoid carcinoma cells which overexpress EGF receptor by the following methods. Cells were grown in roller bottles in 50% Delbuco's Modified Eagle and 50% HAM F-12 nutrient media (Gibco) containing 10% fetal calf serum. Approximately 10^9 cells were lysed in two volumes of buffer containing 20 mM 2-(4N-[2-hydroxyethyl]piperazin-1-yl)ethanesulfonic acid (hepes), pH 7.4, 5 mM ethylene glycol bis(2-aminoethyl ether) N,N,N′,N′-tetraacetic acid, 1% Triton X-100, 10% glycerol, 0.1 mM sodium orthovanadate, 5 mM sodium fluoride, 4 mM pyrophosphate, 4 mM benzamide, 1 mM dithiothreitol, 80 μg/mL aprotinin, 40 μg/mL leupeptin and 1 mM phenylmethylsulfonyl fluoride. After centrifugation at 25,000×g for 10 minutes, the supernatant was equilibrated for 2 h at 4° C. with 10 mL of wheat germ agglutinin sepharose that was previously equilibrated with 50 mM Hepes, […], 0.1% Triton X-100 and 150 mM NaCl, pH 7.5, (equilibration buffer). Contaminating proteins were washed from the resin with 1 M NaCl in equilibration buffer, and the enzyme was eluted with 0.5 M N-acetyl-1-D-glucosamine in equilibration buffer, followed by 1 mM urea. The enzyme was eluted with 0.1 mg/ml EGF.
# The reaction was terminated by the addition of 2 mL of […] phosphoric acid and passed through a 2.5 cm phosphocellulose filter disc to bind the peptide. The filter was washed five times with 75 mM phosphoric acid and placed in a vial along with 5 mL of scintillation fluid (Ready gel Beckman).
row,IC50 [nM],SMILES
1,11,"Brc1cccc(Nc2ncnc3ccsc23)c1 [Example 71, 4-(3-Bromoanilino)thieno[3,2-d]pyrimidine Hydrochloride]"
2,36,"Brc1cccc(Nc2ncnc3sccc23)c1 [Example 73, 4-(3-Bromoanilino)thieno[2,3-d]pyrimidine]"
3,3600,"c1ccc(CNc2ncnc3cccnc23)cc1 [Example 2, 4-Benzylaminopyrido[3,2-d]pyrimidine]"

# Same assay, conditions: Table 1, values in nM; read-out: EGF Receptor Tyrosine Kinase Inhibition IC50
row,SMILES,IC50 [nM]
1,"Nc1cc2ncnc(NCc3ccccc3N)c2cn1 [Example 42, 7-Amino-4-(2-aminobenzylamino)pyrido[4,3-d]pyrimidine]",226
2,"COc1cc2ncnc(Nc3cccc(Br)c3)c2cn1 [Example 37, 4-(3-Bromoanilino)-7-methoxypyrido[4,3-d]pyrimidine]",39
3,"Nc1cc2ncnc(Nc3ccccc3)c2cn1 [Example 13, 7-Amino-4-anilinopyrido[4,3-d]pyrimidine]",250
4,"Nc1cc2ncnc(Nc3cccc(C(F)(F)F)c3)c2cn1 [Example 31, 7-Amino-4-(3-trifluoromnethylanilino)pyrido[4,3-d]pyrimidine]",15
5,"Nc1cc2ncnc(Nc3cccc(O)c3)c2cn1 [Example 14, 7-Amino-4-(3-hydroxyanilino)pyrido[4,3-d]pyrimidine]",70
6,"COc1cccc(Nc2ncnc3cc(N)ncc23)c1 [Example 15, 7-Amino-4-(3-methoxyanilino)pyrido[4,3-d]pyrimidine]",134
7,"Nc1cc2ncnc(Nc3ccc(Br)cc3)c2cn1 [Example 28, 7-Amino-4-(4-bromoanilino)pyrido[4,3-d]pyrimidine]",94
8,"Brc1cccc(Nc2ncnc3ccncc23)c1 [Example 11, 4-(3-Bromoanilino)pyrido[4,3-d]pyrimidine]",194
9,"CC(=O)Nc1cc2ncnc(Nc3cccc(Br)c3)c2cn1 [Example 36, 7-Acetylamino-4-(3-bromoanilino)pyrido[4 3-d]pyrimidine]",29
10,"Nc1cc2ncnc(Nc3cccc(Cl)c3)c2cn1 [Example 24, 7-Amino-4-(3-chloroanilino)pyrido[4,3-d]pyrimidine]",123
11,"Nc1cc2ncnc(Nc3ccccc3Br)c2cn1 [Example 26, 7-Amino-4-(2-bromoanilino)pyrido[4,3-d]pyrimidine]",241
12,"CNc1cc2ncnc(N(C)c3cccc(Br)c3)c2cn1 [Example 35, 4-[N-(3-Bromophenyl)-N-methylaminol-7-methylaminopyrido 4,3-d]pyrimidine]",3.1
13,"c1ccc(CNc2ncnc3ccncc23)cc1 [Example 38, 4-Benzylaminopyrido[4,3-d]pyrimidine]",71
14,"Nc1cc2ncnc(Nc3cccc(F)c3)c2cn1 [Example 23, 7-Amino-4-(3-fluoroanilino)pyrido[4,3-d]pyrimidine]",840
15,"Nc1ccc(Nc2ncnc3cc(N)ncc23)cc1 [Example 18, 7-Amino-4-(4-aminoanilino)pyrido[4,3-d]pyrimidine]",173
16,"Nc1cc2ncnc(Nc3ccc(Cl)c(Cl)c3)c2cn1 [Example 25, 7-Amino-4-(3,4-dichloroanilino)pyrido[4,3-d]pyrimidine]",377
17,"Fc1cc2ncnc(Nc3cccc(Br)c3)c2cn1 [Example 12, 4-(3-Bromoanilino)-7-fluoropyrido[4,3-d]pyrimidine]",13

# The remaining lines, values ahead:
row,IC50 [nM],SMILES
1,124,"Fc1cc2c(Nc3cccc(Br)c3)ncnc2cn1 [Example 57, 4-(3-Bromoanilino)-6-fluoropyrido[3,4-d]pyrimidine]"
2,263,"COc1ccc2c(Nc3cccc(Br)c3)ncnc2n1 [Example 68, 4-(3-Bromoanilino)-7-methoxypyrido[2,3-d]pyrimidine]"
3,11,"Fc1ccc2c(Nc3cccc(Br)c3)ncnc2n1 [Example 64, 4-(3-Bromoanilino)-7-fluoropyrido[2,3-d]pyrimidine]"
4,40,"Clc1cc2c(Nc3cccc(Br)c3)ncnc2cn1 [Example 58, 4-(3-Bromoanilino)-6-chloropyrido[3,4-d]pyrimidine]"
5,110,"Brc1cccc(Nc2ncnc3cnccc23)c1 [Example 56, 4-(3-Bromoanilino)pyrido[3,4-d]pyrimidine]"
6,35,"c1ccc(CNc2ncnc3ccsc23)cc1 [Example 72, 4-Benzylaminothieno[3,2-d]pyrimidine]"
7,400,"c1ccc(Nc2ncnc3cnccc23)cc1 [Example 55, 4-Anilinopyrido[3,4-d]pyrimidine]"
8,670,"COc1ccc(Nc2ncnc3cc(N)ncc23)cc1 [Example 78, 7-Amino-4-(4-methoxyanilino)pyrido[4,3-d]pyrimidine]"
9,55,"Brc1cccc(Nc2ncnc3[nH]cnc23)c1 [Example 75, N^6-(3-Bromophenyl)adenine]"

# Same assay, conditions: Table 1, values in pM; read-out: EGF Receptor Tyrosine Kinase Inhibition IC50
row,IC50 [nM],SMILES
1,0.13,"CNc1cc2ncnc(Nc3cccc(Br)c3)c2cn1 [Example 33, 4-(3-Bromoanilino)-7-methylaminopyrido[4 3-d]pyrimidine]"
2,0.091,"CN(C)c1cc2ncnc(Nc3cccc(Br)c3)c2cn1 [Example 34, 4-(3-Bromoanilino)-7-dimethylaminpyrido[4,3-d]pyrimidine]"

# Same assay, conditions: Table 1, values printed in μM; read-out: EGF Receptor Tyrosine Kinase Inhibition IC50
row,SMILES,IC50 [nM]
1,"Nc1cc2ncnc(Nc3ccccc3[N+](=O)[O-])c2cn1 [Example 21, 7-Amino-4-(2-nitroanilino)pyrido[4,3-d]pyrimidine]",1250
2,"Nc1cc2ncnc(NCc3ccc(Cl)cc3)c2cn1 [Example 46, 7-Amino-4-(4-chlorobenzylamino)pyrido[4,3-d]pyrimidine Mesylate]",1420
3,"COc1cccc(CNc2ncnc3cc(N)ncc23)c1 [Example 45, 7-Amino-4-(3-methoxybenzylamino)pyrido[4,3-d]pyrimidine]",2870
4,"CN(C)c1ccc(Nc2ncnc3cc(N)ncc23)cc1 [Example 20, 7-Amino-4-(4-dimethylaminoanilino)pyrido[4,3-d]pyrimidine]",4900
5,"Nc1cc2ncnc(NCc3cccc(Br)c3)c2cn1 [Example 48, 7-Amino-4-(3-bromobenzylamino)pyrido[4,3-d]pyrimidine]",1000
6,"CN(C)c1cccc(CNc2ncnc3cc(N)ncc23)c1 [Example 43, 7-Amino-4-(3-dimethylaminobenzylamino)pyrido[4,3-d]-pyrimidine]",10000
7,"Nc1cc2ncnc(NCc3ccc(Br)cc3)c2cn1 [Example 49, 7-Amino-4-(4-bromobenzylamino)pyrido[4,3-d]pyrimidine]",2500
8,"Nc1cc2ncnc(NCc3cccc([N+](=O)[O-])c3)c2cn1 [Example 44, 7-Amino-4-(3-nitrobenzylamino)pyrido[4,3-d]pyrimidine]",10000
9,"COc1ccccc1Nc1ncnc2cc(N)ncc12 [Example 16, 7-Amino-4-(2-methoxyanilino)pyrido[4,3-d]pyrimidine]",3700
10,"Nc1cc2ncnc(Nc3ccc(C(F)(F)F)cc3)c2cn1 [Example 32, 7-Amino-4-(4-trifluoromethylanilino)3pyrido[4,3-d]pyrimidine]",4700
11,"c1ccc(Nc2ncnc3cccnc23)cc1 [Example 1, 4-Anilinopyrido[3,2-d]pyrimidine Mesylate]",8000
12,"Clc1ccc2ncnc(Nc3cccc(Br)c3)c2n1 [Example 5, 4-(3-Bromoanilino)-6-chloropyrido[3,2-d]pyrimidine]",1900
13,"Brc1cccc(Nc2ncnc3cccnc23)c1 [Example 3, 4-(3-Bromoanilino)pyrido[3,2-d]pyrimidine]",1100
14,"Nc1cc2ncnc(NCc3ccccc3Br)c2cn1 [Example 47, 7-Amino-4-(2-bromobenzylamino)pyrido[4,3-d]pyrimidine]",1670
15,"c1ccc(Nc2ncnc3ccncc23)cc1 [Example 10, 4-Anilinopyrido[4,3-d]pyrimidine]",6100

# The next lines start with the values.
row,IC50 [nM],SMILES
1,6100,"Brc1cccc(Nc2ncnc3ncccc23)c1 [Example 63, 4-(3-Bromoanilino)pyrido[2,3-d]pyrimidine]"
2,8000,"Nc1cc2ncnc(NCc3ccc(C(F)(F)F)cc3)c2cn1 [Example 52, 7-Amino-4-(4-trifluoromethylbenzylamino)pyrido[4,3-d]pyrimidine]"
3,10000,"c1ccc(CNc2ncnc3nc[nH]c23)cc1 [Example 76, N^6-Benzyladenine]"
4,7000,"CNc1ncc2c(NCc3ccccc3)ncnc2n1 [Example 69, 4-Benzylamino-7-methylaminopyrimido[4,5-d]pyrimidine]"
5,1950,"Nc1cc2ncnc(NCc3cccc(C(F)(F)F)c3)c2cn1 [Example 51, 7-Amino-4-(3-trifluoromethylbenzylamino)pyrido[4,3-d]pyrimidine]"
6,10000,"Nc1cc2ncnc(NCc3ccccc3C(F)(F)F)c2cn1 [Example 50, 7-Amino-4-(2-trifluoromethylbenzylamino)pyrido[4,3-d]pyrimidine]"
7,6100,"c1ccc(CNc2ncnc3cnccc23)cc1 [Example 62, 4-(Benzylamino)pyrido[3,4-d]pyrimidine]"
